We go through 30 molecules from ChEMBL document CHEMBL3817764, “Pyrimidine-based antimalarials: design strategies and antiplasmodial effects” (Medchemcomm, 2016).

The target in series [1] is Dihydroorotate dehydrogenase (quinone), mitochondrial (Homo sapiens, UniProt Q02127). In words: Inhibition of human DHODH.
Series [2] has as its system Plasmodium falciparum. The series is described as follows: Antiplasmodial activity against chloroquine-resistant Plasmodium falciparum W2 by NBT assay. The series is classed as functional, organism-based.
For series [3], the system named is Plasmodium falciparum. In words: Antiplasmodial activity against chloroquine-sensitive Plasmodium falciparum D6 by NBT assay. Type of series: functional, organism-based.
Series [4] in a line: Oral bioavailability in Sprague-Dawley rat plasma by LC/MS analysis. The series is classed as ADME, organism-based.
Series [5] has as its system Plasmodium falciparum. In words: Antimalarial activity against Plasmodium falciparum V1/S harboring DHFR N51I+C59R+S108N+I164L quadruple mutant assessed as reduction parasite growth by [3H]-hypoxanthine incorporation assay. Type of series: functional, organism-based.
The next series deals with Plasmodium berghei. The series is described as follows: Antiplasmodial against Plasmodium berghei in rat malaria model assessed as parasite suppression at 30 mg/kg measured after 4 days. Type of series: functional.
For series [6], the system named is Calf thymus DNA. The series is described as follows: Binding affinity to calf thymus DNA assessed as melting temperature (reference value: 59.5 degC). Type of series: nucleic-acid assay. As to conditions: Bos taurus.
Series [7] relates to Calf thymus DNA. In words: Binding affinity to calf thymus DNA assessed as induction of hypochromic shift in intensity of quinoline absorption band at 331 nm at 7.1 uM. Type of series: nucleic-acid assay. The settings on record: Bos taurus.
The test system of series [8] is Calf thymus DNA. In words: Binding affinity to calf thymus DNA assessed as induction of red shift at 7.1 uM. As to conditions: Bos taurus. The series is classed as nucleic-acid assay.

Chain of Dihydroorotate dehydrogenase (quinone), mitochondrial (Q02127 whole entry): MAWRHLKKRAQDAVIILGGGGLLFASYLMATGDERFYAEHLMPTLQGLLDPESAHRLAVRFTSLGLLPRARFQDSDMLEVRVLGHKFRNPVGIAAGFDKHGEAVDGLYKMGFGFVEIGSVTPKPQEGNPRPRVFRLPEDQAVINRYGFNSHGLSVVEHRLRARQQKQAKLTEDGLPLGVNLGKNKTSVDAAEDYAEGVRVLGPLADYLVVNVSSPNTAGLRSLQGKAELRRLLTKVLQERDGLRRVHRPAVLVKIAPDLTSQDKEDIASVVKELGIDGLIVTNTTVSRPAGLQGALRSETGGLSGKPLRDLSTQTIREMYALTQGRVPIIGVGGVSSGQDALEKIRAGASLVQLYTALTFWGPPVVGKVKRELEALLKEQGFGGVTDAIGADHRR

As for `Cc1cc(Nc2ccc3ccccc3c2)n2ncnc2n1`, the half-inhibitory concentration (IC50) in series [1] was over 200000 nM. Take `Cc1cc(N2CCCCC2)nc(NCCCNc2ccnc3cc(Cl)ccc23)n1`: the IC50 in the series on Plasmodium falciparum [2] came to 16 nM; in the series on Plasmodium falciparum [3], 6 nM. Turning to `Clc1ccc2c(NCCNc3nc(Cl)cc(Cl)n3)ccnc2c1`, the results for the IC50 with Plasmodium falciparum [2] and with Plasmodium falciparum [3] were 16 nM and 6 nM, respectively.

Consider `Cc1cc(N2CCOCC2)nc(NCCNc2ccnc3cc(Cl)ccc23)n1`, for which the IC50 came out at 16 nM in the series on Plasmodium falciparum [2] and 6 nM in the series on Plasmodium falciparum [3]. Turning to `CN1CCN(c2ccnc(NCCNc3ccnc4cc(Cl)ccc34)n2)CC1`, the half-inhibitory concentration (IC50) in the series with Plasmodium falciparum [2] came out at 16 nM; in the series on Plasmodium falciparum [3], 6 nM.

Take `CCN1CCN(c2ccnc(NCCNc3ccnc4cc(Cl)ccc34)n2)CC1`: the IC50 with Plasmodium falciparum [2] worked out at 16 nM; in the series with Plasmodium falciparum [3], 6 nM. Regarding `Cc1cc(N2CCN(C)CC2)nc(NCCCCNc2ccnc3cc(Cl)ccc23)n1`, the IC50 was 16 nM with Plasmodium falciparum [2] and 6 nM in the series on Plasmodium falciparum [3]. In the case of `Cc1cc(N2CCN(C)CC2)nc(NCCCNc2ccnc3cc(Cl)ccc23)n1`, the IC50 in the series with Plasmodium falciparum [2] was determined as 16 nM; in the series with Plasmodium falciparum [3], 6 nM. The molecule `CC1(C)N=C(N)N=C(N)N1OCCCOc1cc(Cl)c(Cl)cc1Cl.Cl` displayed a bioavailability in series [4] of 1%. `Cc1cc(N2CCOCC2)nc(NCCCNc2ccnc3cc(Cl)ccc23)n1`: the IC50 in the series with Plasmodium falciparum [2] is 16 nM; in the series on Plasmodium falciparum [3], 6 nM. With `CN1CCN(c2ccnc(NCCCNc3ccnc4cc(Cl)ccc34)n2)CC1`, the IC50 in the series on Plasmodium falciparum [2] is 16 nM; in the series on Plasmodium falciparum [3] it was 6 nM. As to `Clc1ccc2c(NCCNc3nccc(Cl)n3)ccnc2c1`, the IC50 is 16 nM with Plasmodium falciparum [2] and 6 nM in the series with Plasmodium falciparum [3]. For `Clc1ccc2c(NCCNc3nccc(N4CCCCC4)n3)ccnc2c1`, in that order: 16 nM and 6 nM. Turning to `CCc1nc(N)nc(N)c1OCCCOc1ccccc1CCC(=O)O`, the half-maximal effective concentration (EC50) with Plasmodium falciparum [5] was found to be 56 nM. As to `Cc1cc(N2CCCCC2)nc(NCCNc2ccnc3cc(Cl)ccc23)n1`, the half-inhibitory concentration (IC50) in the series with Plasmodium falciparum [2] worked out at 16 nM; with Plasmodium falciparum [3] it was 6 nM. As to `Cc1cc(N2CCN(C)CC2)nc(NCCNc2ccnc3cc(Cl)ccc23)n1`, the concentration for half-maximal inhibition (IC50) in the series on Plasmodium falciparum [2] turned out to be 16 nM; with Plasmodium falciparum [3] it was 6 nM. As to `Cc1cc(N2CCOCC2)nc(NCCCCCCNc2ccnc3cc(Cl)ccc23)n1`, the results for the half-inhibitory concentration (IC50) with Plasmodium falciparum [2] and in the series with Plasmodium falciparum [3] were 16 nM and 6 nM, respectively. Take `CCN1CCN(c2cc(C)nc(NCCCNc3ccnc4cc(Cl)ccc34)n2)CC1`: the IC50 was found to be 16 nM in the series on Plasmodium falciparum [2] and 6 nM in the series on Plasmodium falciparum [3]. On to `CCN1CCN(c2ccnc(NCCCNc3ccnc4cc(Cl)ccc34)n2)CC1`, for which the IC50 worked out at 16 nM in the series on Plasmodium falciparum [2] and 6 nM with Plasmodium falciparum [3].

Regarding `Clc1ccc2c(NCCCNc3nc(Cl)cc(Cl)n3)ccnc2c1`, the IC50 in the series on Plasmodium falciparum [2] came out at 16 nM; in the series with Plasmodium falciparum [3], 6 nM. Consider `Clc1ccc2c(NCCCNc3nccc(N4CCOCC4)n3)ccnc2c1`, for which the figures for the IC50 in the series on Plasmodium falciparum [2] and in the series with Plasmodium falciparum [3] were 16 nM and 6 nM, respectively. As for `Cc1cc(N2CCCCC2)nc(NCCCCNc2ccnc3cc(Cl)ccc23)n1`, the IC50 turned out to be 16 nM in the series with Plasmodium falciparum [2] and 6 nM in the series with Plasmodium falciparum [3]. Take `Cc1cc(N2CCOCC2)nc(NCCCCNc2ccnc3cc(Cl)ccc23)n1`: the values for the IC50 in the series with Plasmodium falciparum [2] and in the series with Plasmodium falciparum [3] were 16 nM and 6 nM, respectively. With `Clc1ccc2c(NCCNc3ccnc(N4CCOCC4)n3)ccnc2c1`, the Activity in the series on Plasmodium berghei worked out at 93.9%. In the case of `Clc1ccc2c(NCCCNc3nccc(N4CCCCC4)n3)ccnc2c1`, the Tm with Calf thymus DNA [6] stood at 67.8 °C. For the same molecule, the Activity with Calf thymus DNA [7] was found to be 23%; in the series with Calf thymus DNA [8] it was 14 nm. On to `Cc1cc(N2CCN(C)CC2)nc(NCCCCCCNc2ccnc3cc(Cl)ccc23)n1`, for which the IC50 was 16 nM in the series with Plasmodium falciparum [2] and 6 nM in the series with Plasmodium falciparum [3]. In series [4], `Cc1nc(N)nc(N)c1OCCCOc1cc(Cl)c(Cl)cc1Cl` had a bioavailability of 83%. Take `Cc1cc(N2CCCCC2)nc(NCCCCCCNc2ccnc3cc(Cl)ccc23)n1`: the 50% inhibitory concentration (IC50) in the series on Plasmodium falciparum [2] worked out at 16 nM; in the series on Plasmodium falciparum [3] it was 6 nM.

`CCN1CCN(c2cc(C)nc(NCCCCNc3ccnc4cc(Cl)ccc34)n2)CC1`: the IC50 in the series on Plasmodium falciparum [2] is 16 nM; in the series on Plasmodium falciparum [3], 6 nM. On to `Clc1ccc2c(NCCNc3nccc(N4CCOCC4)n3)ccnc2c1`, for which the IC50 in the series on Plasmodium falciparum [2] was 16 nM; in the series with Plasmodium falciparum [3], 6 nM.

For orientation: IC50 means the midpoint of a concentration-inhibition curve. A low value points to greater potency in that assay. Broadly, the bioavailability is the share of a dose that reaches the circulation, judged against a reference dose that is usually intravenous. A higher bioavailability goes with much systemic uptake. Usually EC50 stands for the concentration that produces a half-maximal response.
